Test results published in PubChem BioAssay (NCI).
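Five compound concentrations were applied to cells in 96-well plates for 48 hours; endpoints were derived by simple linear interpolation of the resulting dose-response curve. TGI is the concentration that stops growth completely.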

Legend:
Assay in all cases: growth of human tumour cells (NCI), 48 h
HCC-2998 colon = system: HCC-2998 colon
HCT-15 colon = system: HCT-15 colon
NCI-H226 lung = system: NCI-H226 lung
NCI-H460 lung = system: NCI-H460 lung
NCI/ADR-RES ovarian = system: NCI/ADR-RES ovarian
OVCAR-8 ovarian = system: OVCAR-8 ovarian
SNB-19 CNS = system: SNB-19 CNS
MDA-MB-435 = system: MDA-MB-435
K-562 leukemia = system: K-562 leukemia
SW-620 colon = system: SW-620 colon
OVCAR-5 ovarian = system: OVCAR-5 ovarian
HOP-62 NSCLC = system: HOP-62 NSCLC
HCT-116 colon = system: HCT-116 colon
MDA-N = system: MDA-N
SF-268 CNS = system: SF-268 CNS
NCI-H522 lung = system: NCI-H522 lung
A498 renal = system: A498 renal
SK-MEL-5 melanoma = system: SK-MEL-5 melanoma
A549 NSCLC = system: A549 NSCLC
T-47D breast = system: T-47D breast
MDA-MB-231 breast = system: MDA-MB-231 breast
786-0 renal = system: 786-0 renal
LOX IMVI melanoma = system: LOX IMVI melanoma
TK-10 renal = system: TK-10 renal
CAKI-1 renal = system: CAKI-1 renal
UACC-257 melanoma = system: UACC-257 melanoma
U251 CNS = system: U251 CNS
SR leukemia = system: SR leukemia
OVCAR-3 ovarian = system: OVCAR-3 ovarian
UACC-62 melanoma = system: UACC-62 melanoma
UO-31 renal = system: UO-31 renal
IGROV1 ovarian = system: IGROV1 ovarian
SF-539 CNS = system: SF-539 CNS
RXF 393 renal = system: RXF 393 renal
PC-3 prostate = system: PC-3 prostate
SN12C renal = system: SN12C renal
CCRF-CEM leukemia = system: CCRF-CEM leukemia
NCI-H23 lung = system: NCI-H23 lung
MCF7 breast = system: MCF7 breast
EKVX NSCLC = system: EKVX NSCLC
SK-OV-3 ovarian = system: SK-OV-3 ovarian
M14 melanoma = system: M14 melanoma
RPMI-8226 leukemia = system: RPMI-8226 leukemia
HS 578T breast = system: HS 578T breast
SK-MEL-2 melanoma = system: SK-MEL-2 melanoma
SK-MEL-28 melanoma = system: SK-MEL-28 melanoma
BT-549 breast = system: BT-549 breast
DU-145 prostate = system: DU-145 prostate
ACHN renal = system: ACHN renal
SF-295 CNS = system: SF-295 CNS
KM12 colon = system: KM12 colon
MOLT-4 leukemia = system: MOLT-4 leukemia
SNB-75 CNS = system: SNB-75 CNS
HT29 colon = system: HT29 colon
COLO 205 colon = system: COLO 205 colon
OVCAR-4 ovarian = system: OVCAR-4 ovarian

C#Cc1nc(N)c2ncn(C3OC(COS(N)(=O)=O)C(O)C3O)c2n1 (stereo not drawn)
TGI (HCC-2998 colon): 191 nM
TGI (HCT-15 colon): 429 nM
TGI (NCI-H226 lung): 49.1 nM
TGI (NCI-H460 lung): 634 nM
TGI (NCI/ADR-RES ovarian): < 29.1 nM
TGI (OVCAR-8 ovarian): 194 nM
TGI (SNB-19 CNS): 266 nM
TGI (MDA-MB-435): 71.7 nM
TGI (K-562 leukemia): > 100000 nM
TGI (SW-620 colon): 665 nM
TGI (OVCAR-5 ovarian): 122 nM
TGI (HOP-62 NSCLC): 1970 nM
TGI (HCT-116 colon): 288 nM
TGI (MDA-N): < 29.9 nM
TGI (SF-268 CNS): 688 nM
TGI (NCI-H522 lung): < 10 nM
TGI (A498 renal): < 30.2 nM
TGI (SK-MEL-5 melanoma): 344 nM
TGI (A549 NSCLC): 1560 nM
TGI (T-47D breast): < 10 nM
TGI (MDA-MB-231 breast): < 47.6 nM
TGI (786-0 renal): 797 nM
TGI (LOX IMVI melanoma): < 32.5 nM
TGI (TK-10 renal): 327 nM
TGI (CAKI-1 renal): 225 nM
TGI (UACC-257 melanoma): 339 nM
TGI (U251 CNS): 449 nM
TGI (SR leukemia): < 17.2 nM
TGI (OVCAR-3 ovarian): 90.1 nM
TGI (UACC-62 melanoma): 369 nM
TGI (UO-31 renal): 150 nM
TGI (IGROV1 ovarian): 114 nM
TGI (SF-539 CNS): 198 nM
TGI (RXF 393 renal): 86.6 nM
TGI (PC-3 prostate): 213 nM
TGI (SN12C renal): 256 nM
TGI (CCRF-CEM leukemia): < 25.8 nM
TGI (NCI-H23 lung): 136 nM
TGI (MCF7 breast): > 100000 nM
TGI (EKVX NSCLC): 1290 nM
TGI (SK-OV-3 ovarian): < 10 nM
TGI (M14 melanoma): 457 nM
TGI (RPMI-8226 leukemia): 110 nM
TGI (HS 578T breast): 736 nM
TGI (SK-MEL-2 melanoma): 19.6 nM
TGI (SK-MEL-28 melanoma): 298 nM
TGI (BT-549 breast): 349 nM
TGI (DU-145 prostate): 99.7 nM
TGI (ACHN renal): 74.3 nM
TGI (SF-295 CNS): 3170 nM
TGI (KM12 colon): 352 nM
TGI (MOLT-4 leukemia): < 25.8 nM
TGI (SNB-75 CNS): 349 nM
TGI (HT29 colon): 481 nM

O=C(O)CCC(N=C(C(=NC(CCC(=O)O)C(=O)O)c1ccccc1)c1ccccc1)C(=O)O (stereo not drawn)
TGI (HCC-2998 colon): > 100000 nM
TGI (HCT-15 colon): > 100000 nM
TGI (NCI-H226 lung): > 100000 nM
TGI (NCI-H460 lung): > 100000 nM
TGI (COLO 205 colon): > 100000 nM
TGI (NCI/ADR-RES ovarian): > 100000 nM
TGI (OVCAR-8 ovarian): > 100000 nM
TGI (SNB-19 CNS): > 100000 nM
TGI (MDA-MB-435): > 100000 nM
TGI (K-562 leukemia): > 100000 nM
TGI (SW-620 colon): > 100000 nM
TGI (OVCAR-5 ovarian): > 100000 nM
TGI (HOP-62 NSCLC): > 100000 nM
TGI (HCT-116 colon): > 100000 nM
TGI (MDA-N): > 100000 nM
TGI (SF-268 CNS): > 100000 nM
TGI (A498 renal): > 100000 nM
TGI (A549 NSCLC): > 100000 nM
TGI (T-47D breast): > 100000 nM
TGI (MDA-MB-231 breast): > 100000 nM
TGI (786-0 renal): > 100000 nM
TGI (LOX IMVI melanoma): > 100000 nM
TGI (TK-10 renal): > 100000 nM
TGI (UACC-257 melanoma): > 100000 nM
TGI (U251 CNS): > 100000 nM
TGI (SR leukemia): > 100000 nM
TGI (OVCAR-3 ovarian): > 100000 nM
TGI (UACC-62 melanoma): > 100000 nM
TGI (UO-31 renal): > 100000 nM
TGI (RXF 393 renal): > 100000 nM
TGI (PC-3 prostate): > 100000 nM
TGI (SN12C renal): > 100000 nM
TGI (NCI-H23 lung): > 100000 nM
TGI (MCF7 breast): > 100000 nM
TGI (EKVX NSCLC): > 100000 nM
TGI (SK-OV-3 ovarian): > 100000 nM
TGI (M14 melanoma): > 100000 nM
TGI (RPMI-8226 leukemia): > 100000 nM
TGI (HS 578T breast): > 100000 nM
TGI (SK-MEL-2 melanoma): > 100000 nM
TGI (SK-MEL-28 melanoma): > 100000 nM
TGI (BT-549 breast): > 100000 nM
TGI (DU-145 prostate): > 100000 nM
TGI (ACHN renal): > 100000 nM
TGI (OVCAR-4 ovarian): > 100000 nM
TGI (SF-295 CNS): > 100000 nM
TGI (KM12 colon): > 100000 nM
TGI (MOLT-4 leukemia): > 100000 nM
TGI (SNB-75 CNS): > 100000 nM
